Test results as given in US20200231614A1, “PSMA TARGETED RADIOHALOGENATED UREAS FOR CANCER RADIOTHERAPY” (THE JOHNS HOPKINS UNIVERSITY, priority 2015, published 2020).
Where two headings read alike, the source gives them in different places.

Tested on: PSMA + PC-3 PiP and PSMA − PC-3 flu tumor xenografts
Conditions: for Biodistribution: PC-3 PiP: PSMA+ tumor xenograft; for Biodistribution: PC-3 flu: PSMA− tumor xenograft

## O=C(O)CC[C@H](NC(=O)N[C@@H](CSCc1ccc([125I])cc1)C(=O)O)C(=O)O [[^125I] labeled DCIBC, (S)-2-(3-((R)-1-carboxy-2-(4-[^125I]iodobenzylthio)ethyl)ureido)-pentanedioic Acid]
1 H post-injection
  Biodistribution: Lrg Int.: 1.2 ± 0.1 % ID/g
  Biodistribution: PSMA + tumor: 8.0 ± 1.3 % ID/g
  Biodistribution: PSMA − tumor: 1.3 ± 0.2 % ID/g
  Biodistribution: Sm int.: 1.2 ± 0.3 % ID/g
  Biodistribution: blood: 5.8 ± 2.3 % ID/g
  Biodistribution: heart: 1.5 ± 0.2 % ID/g
  Biodistribution: kidney: 77 ± 17 % ID/g
  Biodistribution: liver: 20 ± 4 % ID/g
  Biodistribution: lung: 2.2 ± 0.4 % ID/g
  Biodistribution: muscle: 1.0 ± 0.8 % ID/g
  Biodistribution: spleen: 5.1 ± 2.2 % ID/g
2 H post-injection
  Biodistribution: Lrg Int.: 1.2 ± 0.5 % ID/g
  Biodistribution: PSMA + tumor: 5.6 ± 1.3 % ID/g
  Biodistribution: PSMA − tumor: 0.9 ± 0.1 % ID/g
  Biodistribution: Sm int.: 1.1 ± 0.2 % ID/g
  Biodistribution: blood: 4.9 ± 2.6 % ID/g
  Biodistribution: heart: 1.1 ± 0.2 % ID/g
  Biodistribution: kidney: 30 ± 8 % ID/g
  Biodistribution: liver: 17 ± 4 % ID/g
  Biodistribution: lung: 1.9 ± 0.5 % ID/g
  Biodistribution: muscle: 0.5 ± 0.2 % ID/g
  Biodistribution: spleen: 3.2 ± 0.6 % ID/g
5 H post-injection
  Biodistribution: Lrg Int.: 2.7 ± 1.9 % ID/g
  Biodistribution: PSMA + tumor: 5.5 ± 0.6 % ID/g
  Biodistribution: PSMA − tumor: 1.0 ± 0.3 % ID/g
  Biodistribution: Sm Int.: 1.7 ± 1.5 % ID/g
  Biodistribution: blood: 3.3 ± 1.1 % ID/g
  Biodistribution: heart: 0.9 ± 0.5 % ID/g
  Biodistribution: kidney: 18 ± 6 % ID/g
  Biodistribution: liver: 17 ± 1 % ID/g
  Biodistribution: lung: 1.0 ± 0.5 % ID/g
  Biodistribution: muscle: 0.4 ± 0.2 % ID/g
  Biodistribution: spleen: 3.9 ± 1.1 % ID/g

## N=C(N)NCc1ccc(C(=O)NCCCC[C@H](NC(=O)N[C@@H](CCC(=O)O)C(=O)O)C(=O)O)cc1[131I] [[^131I] labeled 7 (PSMA-620)]
1 H post-injection
  Biodistribution: Sm int.: 3.14 ± 0.66 % ID/g
  Biodistribution: bladder: 1.99 ± 0.50 % ID/g
  Biodistribution: blood: 0.95 ± 0.15 % ID/g
  Biodistribution: heart: 1.29 ± 0.37 % ID/g
  Biodistribution: kidney: 103 ± 24.0 % ID/g
  Biodistribution: liver: 8.25 ± 2.47 % ID/g
  Biodistribution: lung: 3.29 ± 0.56 % ID/g
  Biodistribution: muscle: 0.56 ± 0.05 % ID/g
  Biodistribution: spleen: 17.1 ± 3.71 % ID/g
  Biodistribution: stomach: 2.01 ± 0.41 % ID/g
  Biodistribution: thyroid: 0.79 ± 0.17 % ID/g
  Biodistribution: PC-3 PiP: 16.5 ± 4.78 % ID/g
  Biodistribution: PC-3 flu: 1.09 ± 0.21 % ID/g
2 H post-injection
  Biodistribution: Sm int.: 2.29 ± 0.69 % ID/g
  Biodistribution: bladder: 1.65 ± 0.48 % ID/g
  Biodistribution: blood: 0.58 ± 0.08 % ID/g
  Biodistribution: heart: 0.89 ± 0.18 % ID/g
  Biodistribution: kidney: 89.0 ± 5.18 % ID/g
  Biodistribution: liver: 5.62 ± 1.17 % ID/g
  Biodistribution: lung: 1.99 ± 0.23 % ID/g
  Biodistribution: muscle: 0.34 ± 0.08 % ID/g
  Biodistribution: spleen: 6.81 ± 3.20 % ID/g
  Biodistribution: stomach: 2.55 ± 0.69 % ID/g
  Biodistribution: thyroid: 0.77 ± 0.25 % ID/g
  Biodistribution: PC-3 PiP: 17.2 ± 4.34 % ID/g
  Biodistribution: PC-3 flu: 0.80 ± 0.11 % ID/g
4 H post-injection
  Biodistribution: Sm int.: 1.32 ± 0.68 % ID/g
  Biodistribution: bladder: 1.96 ± 1.10 % ID/g
  Biodistribution: blood: 0.30 ± 0.08 % ID/g
  Biodistribution: heart: 0.75 ± 0.34 % ID/g
  Biodistribution: kidney: 77.7 ± 38.8 % ID/g
  Biodistribution: liver: 4.37 ± 2.96 % ID/g
  Biodistribution: lung: 1.69 ± 0.67 % ID/g
  Biodistribution: muscle: 0.23 ± 0.10 % ID/g
  Biodistribution: spleen: 3.63 ± 2.40 % ID/g
  Biodistribution: stomach: 2.87 ± 0.55 % ID/g
  Biodistribution: thyroid: 0.75 ± 0.17 % ID/g
  Biodistribution: PC-3 PiP: 18.3 ± 4.27 % ID/g
  Biodistribution: PC-3 flu: 0.57 ± 0.21 % ID/g
14 H post-injection
  Biodistribution: Sm int.: 0.42 ± 0.12 % ID/g
  Biodistribution: bladder: 0.74 ± 0.35 % ID/g
  Biodistribution: blood: 0.16 ± 0.04 % ID/g
  Biodistribution: heart: 0.48 ± 0.12 % ID/g
  Biodistribution: kidney: 17.2 ± 10.7 % ID/g
  Biodistribution: liver: 0.60 ± 0.28 % ID/g
  Biodistribution: lung: 1.02 ± 0.27 % ID/g
  Biodistribution: muscle: 0.10 ± 0.02 % ID/g
  Biodistribution: spleen: 1.27 ± 0.42 % ID/g
  Biodistribution: stomach: 2.24 ± 1.08 % ID/g
  Biodistribution: thyroid: 0.74 ± 0.27 % ID/g
  Biodistribution: PC-3 PiP: 15.8 ± 2.42 % ID/g
  Biodistribution: PC-3 flu: 0.28 ± 0.10 % ID/g
21 H post-injection
  Biodistribution: Sm int.: 0.31 ± 0.07 % ID/g
  Biodistribution: bladder: 0.56 ± 0.37 % ID/g
  Biodistribution: blood: 0.09 ± 0.07 % ID/g
  Biodistribution: heart: 0.40 ± 0.11 % ID/g
  Biodistribution: kidney: 7.52 ± 1.82 % ID/g
  Biodistribution: liver: 0.33 ± 0.06 % ID/g
  Biodistribution: lung: 1.00 ± 0.21 % ID/g
  Biodistribution: muscle: 0.09 ± 0.01 % ID/g
  Biodistribution: spleen: 0.93 ± 0.37 % ID/g
  Biodistribution: stomach: 1.91 ± 0.95 % ID/g
  Biodistribution: thyroid: 0.88 ± 0.13 % ID/g
  Biodistribution: PC-3 PiP: 13.6 ± 3.33 % ID/g
  Biodistribution: PC-3 flu: 0.20 ± 0.08 % ID/g

## N=C(N)NCc1ccc(C(=O)NCCCCC(NC(=O)CCCCCCC(=O)NCCCC[C@H](NC(=O)N[C@@H](CCC(=O)O)C(=O)O)C(=O)O)C(=O)O)cc1[131I] (some centres unmarked) [[^131I] labeled PSMA-904]
1 H post-injection
  Biodistribution: Lrg Int.: 0.50 ± 0.65 % ID/g
  Biodistribution: Sm int.: 33.81 ± 6.36 % ID/g
  Biodistribution: bladder: 0.71 ± 0.23 % ID/g
  Biodistribution: blood: 0.46 ± 0.17 % ID/g
  Biodistribution: heart: 0.46 ± 0.18 % ID/g
  Biodistribution: kidney: 121 ± 23.8 % ID/g
  Biodistribution: liver: 5.16 ± 3.81 % ID/g
  Biodistribution: lung: 1.39 ± 0.36 % ID/g
  Biodistribution: muscle: 0.31 ± 0.14 % ID/g
  Biodistribution: spleen: 9.83 ± 3.28 % ID/g
  Biodistribution: stomach: 0.73 ± 0.26 % ID/g
  Biodistribution: thyroid: 0.11 ± 0.13 % ID/g
  Biodistribution: PC-3 PiP: 27.6 ± 7.59 % ID/g
  Biodistribution: PC-3 flu: 0.49 ± 0.23 % ID/g
2 H post-injection
  Biodistribution: Lrg Int.: 21.3 ± 15.9 % ID/g
  Biodistribution: Sm int.: 14.2 ± 12.0 % ID/g
  Biodistribution: bladder: 0.64 ± 0.25 % ID/g
  Biodistribution: blood: 0.18 ± 0.07 % ID/g
  Biodistribution: heart: 0.27 ± 0.14 % ID/g
  Biodistribution: kidney: 110 ± 37.2 % ID/g
  Biodistribution: liver: 3.48 ± 2.35 % ID/g
  Biodistribution: lung: 0.81 ± 0.37 % ID/g
  Biodistribution: muscle: 0.13 ± 0.03 % ID/g
  Biodistribution: spleen: 3.41 ± 2.01 % ID/g
  Biodistribution: stomach: 1.03 ± 0.62 % ID/g
  Biodistribution: thyroid: 0.31 ± 0.23 % ID/g
  Biodistribution: PC-3 PiP: 24.7 ± 9.77 % ID/g
  Biodistribution: PC-3 flu: 0.22 ± 0.06 % ID/g
21 H post-injection
  Biodistribution: Lrg Int.: 14.5 ± 8.08 % ID/g
  Biodistribution: Sm int.: 0.87 ± 0.92 % ID/g
  Biodistribution: bladder: 0.07 ± 0.09 % ID/g
  Biodistribution: blood: 0.02 ± 0.01 % ID/g
  Biodistribution: heart: 0.02 ± 0.01 % ID/g
  Biodistribution: kidney: 3.03 ± 2.96 % ID/g
  Biodistribution: liver: 0.24 ± 0.39 % ID/g
  Biodistribution: lung: 0.03 ± 0.01 % ID/g
  Biodistribution: muscle: 0.03 ± 0.02 % ID/g
  Biodistribution: spleen: 0.16 ± 0.07 % ID/g
  Biodistribution: stomach: 1.98 ± 3.10 % ID/g
  Biodistribution: thyroid: 0.42 ± 0.35 % ID/g
  Biodistribution: PC-3 PiP: 19.2 ± 7.28 % ID/g
  Biodistribution: PC-3 flu: 0.02 ± 0.01 % ID/g
